Measurements from US20250186634A1, “METHODS OF TREATING SMALL CELL LUNG CANCER” (Evergreen Discovery, LLC., priority 2023, published 2025).

Experiments:
[1] = biological target: T1, CCK2R (Rattus norvegicus, UniProt P30553); experiment: Small molecule blocking of PP-F11-FITC fluorescent signal in AR42J cells; format: cell-based; conditions: 100 nM PP-F11-FITC, antagonist at 50× the concentration of PP-F11-FITC, FIG. 1A
T1 construct: rat pancreatic AR42J cells, which are known to express CCK2R; endogenous in cells; host or cells: AR42J rat pancreatic cancer cell line
T1 sequence (P30553 1-452): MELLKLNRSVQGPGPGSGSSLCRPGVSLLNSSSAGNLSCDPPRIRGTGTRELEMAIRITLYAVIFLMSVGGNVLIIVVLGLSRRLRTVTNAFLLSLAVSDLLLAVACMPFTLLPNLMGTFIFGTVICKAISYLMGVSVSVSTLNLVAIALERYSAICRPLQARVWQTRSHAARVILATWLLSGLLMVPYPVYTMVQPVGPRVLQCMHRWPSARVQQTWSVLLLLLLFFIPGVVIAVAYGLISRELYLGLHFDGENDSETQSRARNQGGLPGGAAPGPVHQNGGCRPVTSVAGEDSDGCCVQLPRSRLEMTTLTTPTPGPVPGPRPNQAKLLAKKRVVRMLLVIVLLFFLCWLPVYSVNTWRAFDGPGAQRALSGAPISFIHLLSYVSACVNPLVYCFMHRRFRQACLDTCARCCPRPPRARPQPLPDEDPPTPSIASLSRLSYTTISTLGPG
Method: Small molecule antagonism of PP-F11 in AR42J and Panc1 cell lines was evaluated by measuring the intensity of a fluorescent (“FL”) signal of FL tagged PP-F11 in the presence or absence of small molecule inhibitors.
Each blocking agent was added in a 50× excess dose concentration to saturate available receptors.
FIG. 1A depicts small molecule blocking experiments performed in rat pancreatic AR42J cells, which are known to express CCK2R. 100 nM of a fluorescently labeled version of PP-F11 (PP-F11-FITC) was added to cell culture in the absence of or the presence of various small molecule CCK2 receptor antagonists at 50× the concentration of fluorescently labeled PP-F11. To determine blocking of PP-F11, the fluorescent intensity of fluorescently labeled PP-F11 was measured in each experiment.

[2] = biological target: T1, CCK2R; experiment: Uptake of 177Lu-EVG321 by AR42J cells pre-treated with blocking agent (gamma counting); format: cell-based; conditions: 2 mM blocking agent (100× excess dose), pre-treated 1 hour, 200 fmols 177Lu-EVG321 per well, two-tailed t-test, FIG. 3A-C
Method: AR42J rat pancreatic cell line were used as they express the CCK2 receptor. The AR42J rat pancreatic cancer cell line was cultured in F-12K medium from ATCC with a final concentration of FBS of 20% (v/v). Medium was changed every 2-3 days and a sub-cultivation ratio of 1:3 was used to split the cells. […] 1×10^6AR42J cells were seeded per well in a 6 well plate in 2 mL of media (DMEM: F12+10% Fetal Bovine Serum (FBS)). Cells were stored at 37° C. in an incubator starting at time 0 for 24-48 hours (depending on cell adherence). On the day of experiment, 1 hour before adding the blocking agent, the medium was changed and replaced with 2 mL of fresh media, and incubated at 37° C. degrees for 1 hour. Once the 1-hour incubation was complete, 4 μL of blocking agent was added to each well to provide a final concentration of 2 mM (i.e., 100 times more concentrated than the radioactive molecule). The plate was gently shaken and incubated at 37° C. for 1 hour. […] Samples were then analyzed using a Hidex Gamma counter to measure counts from each tube (gamma peaks of ^177Lu at 113 keV and 208 keV, 5 minutes per tube counting). […] Radioactive uptake was measured as a fraction of the added radiation at time 0 and used to calculate relative binding in counts per minute (CPM). […]

Row | Compound | fluorescent signal of PP-F11-FITC compared to experiment A (PP-F11-FITC only); decrease indicates blocking of PP-F11 binding [1] | specific uptake of 177Lu-EVG321 (relative uptake, CPM) versus cells without blocking agent [2]
1 | CSCC[C@H](NC(=O)[C@H](Cc1c[nH]c2ccccc12)NC(=O)CNC(=O)[C@H](Cc1ccc(O)cc1)NC(=O)[C@H](C)NC(=O)[C@@H](CCC(=O)O)NC(=O)[C@@H](CCC(=O)O)NC(=O)[C@@H](CCC(=O)O)NC(=O)[C@@H](CCC(=O)O)NC(=O)[C@@H](CCC(=O)O)NC(=O)[C@H](N)CCC(=O)O)C(=O)N[C@@H](CC(=O)O)C(=O)N[C@@H](Cc1ccccc1)C(N)=O [PP-F11] | decrease in fluorescent signal | 
2 | CCCN(CCC)C(=O)C(CCC(=O)O)NC(=O)c1ccccc1 (stereo not shown) [proglumide, 4-benzamido-5-(dipropylamino)-5-oxopentanoic acid] |  | did not show as drastic and statistically significant reduction of uptake
3 | CNc1cccc(NC(=O)N[C@@H]2N=C(c3ccccn3)c3ccccc3N(CC(=O)C(C)(C)C)C2=O)c1 [sograzepide, (R)-1-(1-(3,3-dimethyl-2-oxobutyl)-2-oxo-5-(pyridin-2-yl)-2,3-dihydro-1H-benzo[e][1,4]diazepin-3-yl)-3-(3-(methylamino)phenyl) urea] | decrease in fluorescent signal | significant decrease in the specific uptake
